Data as given in the SangsterLogP compilation.

Assay: method code SF-AS, from DOI: 10.2175/106143002x139965, PMID: 12150246

| SMILES | logP |
| --- | --- |
| Clc1cccc(Br)c1Cl | 4.61 |
| Fc1c(Cl)cccc1Cl | 3.38 |
| Clc1ccc(I)cc1 | 4.12 |
| O=[N+]([O-])c1ccc(Cl)c([N+](=O)[O-])c1 | 2.18 |
| Nc1ccc([N+](=O)[O-])cc1Cl | 2.14 |
| Nc1ccc(F)cc1Cl | 2.04 |
| Nc1ccc(Cl)c(Cl)c1 | 2.55 |
| O=[N+]([O-])c1cc(Cl)ccc1O | 2.48 |
| Fc1ccc(Cl)cc1Cl | 3.38 |
| Clc1cccc(Cl)c1Br | 4.17 |
| Nc1c(Cl)cc([N+](=O)[O-])cc1Cl | 2.84 |
| N#Cc1ccc(Cl)cc1 | 2.24 |
| Clc1cccc(I)c1Cl | 4.93 |
| Nc1ccc(Cl)cc1[N+](=O)[O-] | 2.56 |
| Nc1cc([N+](=O)[O-])ccc1Cl | 2.2 |
